Data published in patent publication US12351587B2, “Bicyclic compound as RIP-1 kinase inhibitor and application thereof” (MEDSHINE DISCOVERY INC., priority 2019, dated 2025).

Columns and labels:
[1] = test system: U937 cells; experiment: U937 cell activity assay: TNFα/QVD-OPh-induced programmed cell necrosis (necroptosis); assay type: cell-based, human; conditions: QVD-OPh 25 μM + TNF-α 100 ng/mL, CellTiter Glo
Experimental: 1.2 Instrument and Materials
Envision plate reader (Perkin Elmer, Cat #2104-0010)
1.3 Formulation of Reagents • (1) 1×DPSB: To 100 mL of 10×DPBS was added 900 mL of deionized water. • (2) 1640 complete medium: To 89 mL of RPMI-1640 medium were added 10 mL of FBS and 1 mL of penicillin/streptomycin 2. Assay Steps • 1. U937 cells were centrifuged, and then the medium was discarded. The cells were resuspended in 1640 complete medium and counted. The cell concentration was adjusted to 5×10^5 cells/mL for use, and the cells were arranged according to compounds to be assayed. • 2. To the prepared resuspension of U937 cells were added QVD-OPh at a final concentration of 25 μM and TNF-α at a final concentration of 100 ng/mL, and then the mixture was mixed gently. • 3. To a 384-well plate was added 30 μL/well of U937 cells containing 25 μM of QVD-OPh and TNF-α at a final concentration of 100 ng/mL, and blank control wells without QVD-OPh and TNF-α were set up. • 4. To the dosing group […] added 10 μL of the assay compound at 4 times the preset concentration, and to the blank control well was added DMSO at the corresponding concentration. • 5. The 384-well plate was placed in a 37° C. and 5% CO2 cell incubator for 24 hours. • 6. After 24 hours, the 384-well plate was taken out and equilibrated at room temperature for 20 minutes. • 7. 40 μL of CTG was added to each well, and then the plate was shaken on a shaker in the dark for 2 minutes. • 8. The plate was incubated at room temperature in the dark for 10 minutes, and then read using an Envision plate reader.

[2] = test system: L929 cells; experiment: In vitro activity assay of mouse RIP1: L929 cell TNFα/QVD-OPh-induced necroptosis; assay type: cell-based; conditions: TNF-α 50 ng/mL + Q-VD 50 μM, 24 h, CellTiter Glo
Experimental: Assay Example 2: In Vitro Activity Assay of Mouse RIP1
L929 (purchased from ATCC, Item No.: CCL-1)
Instrument Microplate reader (Perkin Elmer, Envision) Formulation of Reagents L929 cell complete medium: EMEM+10% horse serum (volume ratio)+1% double antibiotics (volume ratio) Assay Step • 1. The cultured L929 cells were digested with trypsin, centrifuged, resuspended in complete culture medium, and then counted. The cell concentration was then diluted to 1×10^5/mL with complete culture medium. • 2. The cell suspension was added to a 96-well plate at 100 μL per well and incubated at 37° C. and 5% CO2 for 24 h. • 3. Different concentrations of assay compounds were added to each well, and dimethyl sulfoxide was added to the control group. The plate was incubated at 37° C. and 5% CO2 for 1 h. • 4. To each well were added TNF-α at a final concentration of 50 ng/mL and Q-VD at a final concentration of 50 μM, and the plate was incubated at 37° C. and 5% CO2 for 24 h. • 5. To each well was added 50 μL of CellTiter Glo […], and the plate was shaken in the dark for 10 min. • 6. The plate was read on the microplate reader.

[3] = Pharmacokinetic parameters in dogs; assay type: in vivo; conditions: beagle, plasma, dog
Experimental: Four healthy adult beagle dogs were selected and randomly divided into two groups. One group was given the assay compound by intravenous injection, and the other group was given the assay compound by gavage. Plasma samples were collected respectively from animals in the intravenous group and gavage group at 0.083, 0.25, 0.5, 1.0, 2.0, 4.0, 6.0, 8.0, 24 hours after administration. The blood concentration was determined by LC-MS/MS method. Relevant pharmacokinetic parameters were calculated by WinNonlin™ Version 6.3 (Pharsight. Mountain View, CA) pharmacokinetic software using non-compartmental model and linear logarithmic trapezoidal method. AUC0-last represents the area under the plasma concentration-time curve from zero time point to the last detectable concentration time point; Cmax represents the peak concentration; Tmax represents the time to reach the peak; T1/2 represents the half-life; CL represents the clearance rate; Vdss represents apparent volume of distribution; p.o. represents per os; i.v. represents intravenous injection; and F % represents oral bioavailability.

SMILES: CN1C(=S)[C@@H](NC(=O)c2nc3n(n2)CCO[C@H]3c2ccccc2)COc2cccnc21 (single isomer, unassigned) [WX028]
- IC50 ([1]; Homo sapiens, U-937, 24 h): 4.7 nM
- IC50 [2]: 0.065 µM

SMILES: CN1C(=S)[C@@H](NC(=O)c2nc(Cc3ccccc3)n[nH]2)COc2ccccc21 [WX001]
- IC50 ([1]; Homo sapiens, U-937, 24 h): 0.5 nM
- IC50 [2]: 1.16 µM

SMILES: CN1C(=S)[C@@H](NC(=O)c2nc(Cc3cccc(C#N)c3)n[nH]2)COc2ccccc21 [WX002]
- IC50 ([1]; Homo sapiens, U-937, 24 h): 1.8 nM

SMILES: CN1C(=S)[C@@H](NC(=O)c2nc(Cc3ccccc3)n[nH]2)COc2cccnc21 [WX003]
- IC50 ([1]; Homo sapiens, U-937, 24 h): 0.5 nM
- IC50 [2]: 1.21 µM

SMILES: CN1C(=S)[C@@H](NC(=O)c2nc(Cc3cccc(C#N)c3)n[nH]2)COc2cccnc21 [WX004]
- IC50 ([1]; Homo sapiens, U-937, 24 h): 0.3 nM

SMILES: [2H]C([2H])([2H])N1C(=S)[C@@H](NC(=O)c2n[nH]c(Cc3ccccc3)n2)COc2cccnc21 [WX005]
- IC50 ([1]; Homo sapiens, U-937, 24 h): 2 nM
- IC50 [2]: 1.31 µM

SMILES: CN1C(=S)[C@@H](NC(=O)c2cn(Cc3ccccc3)cn2)COc2cccnc21 [WX006]
- IC50 ([1]; Homo sapiens, U-937, 24 h): 9 nM

SMILES: CN1C(=S)[C@@H](NC(=O)c2cc(Cc3ccccc3)on2)COc2cccnc21 [WX007]
- IC50 ([1]; Homo sapiens, U-937, 24 h): 70 nM

SMILES: CN1C(=S)[C@@H](NC(=O)c2nc(Cl)n(Cc3cccc(C#N)c3)n2)COc2cccnc21 [WX008]
- IC50 ([1]; Homo sapiens, U-937, 24 h): 8.1 nM
- IC50 [2]: 0.047 µM

SMILES: CN1C(=S)[C@@H](NC(=O)c2cn(Cc3ccccc3)nn2)COc2cccnc21 [WX010]
- IC50 ([1]; Homo sapiens, U-937, 24 h): 47 nM

SMILES: CN1C(=S)[C@@H](NC(=O)c2nc(Cl)n(Cc3ccccc3)n2)COc2cccnc21 [WX011]
- IC50 ([1]; Homo sapiens, U-937, 24 h): 1.7 nM
- IC50 [2]: 0.011 µM

SMILES: CN1C(=S)[C@@H](NC(=O)c2nnc(Cc3ccccc3)o2)COc2cccnc21 [WX012]
- IC50 ([1]; Homo sapiens, U-937, 24 h): 12.1 nM

SMILES: CN1C(=S)[C@@H](NC(=O)c2nc3n(n2)[C@H](c2ccccc2)CC3)COc2cccnc21 [WX013]
- IC50 ([1]; Homo sapiens, U-937, 24 h): 1.8 nM
- IC50 [2]: 0.014 µM
- AUC(0-t) ([3]; 1 mg/kg, iv = 1 mpk): 7.42 µM·h
- clearance ([3]; 1 mg/kg, iv = 1 mpk): 5.18 mL/min/kg
- half-life ([3]; 1 mg/kg, iv = 1 mpk): 4.89 h
- Vd ([3]; 1 mg/kg, iv = 1 mpk, read-out: Vdss): 2.02 L/kg
- AUC(0-t) ([3]; 5 mg/kg, po = 5 mpk): 27.7 µM·h
- bioavailability ([3]; po = 5 mpk vs iv = 1 mpk): 80.1%

SMILES: O=C(N[C@H]1CCc2cc(F)cc(F)c2NC1=S)c1nc(Cc2ccccc2)n[nH]1 [WX014]
- IC50 ([1]; Homo sapiens, U-937, 24 h): 3.7 nM

SMILES: CN1C(=S)[C@@H](NC(=O)c2nnn(Cc3ccccc3)n2)COc2cccnc21 [WX015]
- IC50 ([1]; 24 hours): 5.1 nM

SMILES: Cc1nc(C(=O)N[C@H]2COc3cccnc3N(C)C2=S)nn1Cc1ccccc1 [WX016]
- IC50 ([1]; Homo sapiens, U-937, 24 h): 9.8 nM

SMILES: CN1C(=S)[C@@H](NC(=O)c2ncn(CC34CC(F)(C3)C4)n2)COc2cccnc21 [WX017]
- IC50 ([1]; Homo sapiens, U-937, 24 h): 59 nM

SMILES: CN1C(=S)[C@@H](NC(=O)c2nnn(Cc3ccccc3)n2)COc2cccnc21 [WX018]
- IC50 ([1]; 24 hours): 1.3 nM

SMILES: CN1C(=S)[C@@H](NC(=O)c2ncn(Cc3ccccc3F)n2)COc2cccnc21 [WX019]
- IC50 ([1]; Homo sapiens, U-937, 24 h): 0.6 nM
- IC50 [2]: 0.051 µM

SMILES: CN1C(=S)[C@@H](NC(=O)c2ncn(Cc3c(F)cccc3F)n2)COc2cccnc21 [WX020]
- IC50 ([1]; Homo sapiens, U-937, 24 h): 0.6 nM
- IC50 [2]: 0.029 µM

SMILES: CN1C(=S)[C@@H](NC(=O)c2ncn(Cc3ccccc3)n2)COc2cc(Cl)cnc21 [WX021]
- IC50 ([1]; Homo sapiens, U-937, 24 h): 13 nM
- IC50 [2]: 0.445 µM

SMILES: CN1C(=S)[C@@H](NC(=O)c2ncn(Cc3ccccc3F)n2)COc2cc(Cl)cnc21 [WX022]
- IC50 ([1]; Homo sapiens, U-937, 24 h): 20 nM

SMILES: CN1C(=S)[C@@H](NC(=O)c2ncn(Cc3ccccc3)n2)COc2cc(Br)cnc21 [WX023]
- IC50 ([1]; Homo sapiens, U-937, 24 h): 29 nM

SMILES: CN1C(=S)[C@@H](NC(=O)c2ncn(Cc3ccccc3)n2)COc2ccc(C(=O)O)cc21 [WX024]
- IC50 ([1]; Homo sapiens, U-937, 24 h): 43 nM

SMILES: CN1C(=S)[C@@H](NC(=O)c2ncn(Cc3ccccc3)n2)COc2ccncc21 [WX025]
- IC50 ([1]; Homo sapiens, U-937, 24 h): 12 nM

SMILES: CN1C(=S)[C@@H](NC(=O)c2cc(Oc3ccccc3)ccn2)COc2cccnc21 [WX026]
- IC50 ([1]; Homo sapiens, U-937, 24 h): 5 nM

SMILES: COc1ccccc1Cn1cnc(C(=O)N[C@H]2COc3cccnc3N(C)C2=S)n1 [WX027]
- IC50 ([1]; Homo sapiens, U-937, 24 h): 20 nM

SMILES: CN1C(=S)[C@@H](NC(=O)c2ncn(Cc3cccc(F)c3)n2)COc2cccnc21 [WX029]
- IC50 ([1]; Homo sapiens, U-937, 24 h): 2.2 nM
- IC50 [2]: 0.184 µM

SMILES: COc1ccc(Cn2cnc(C(=O)N[C@H]3COc4cccnc4N(C)C3=S)n2)cc1 [WX030]
- IC50 ([1]; Homo sapiens, U-937, 24 h): 15.6 nM

SMILES: CN1C(=S)[C@@H](NC(=O)c2ncn(Cc3ccc(F)cc3)n2)COc2cccnc21 [WX031]
- IC50 ([1]; Homo sapiens, U-937, 24 h): 2.4 nM
- IC50 [2]: 0.174 µM

SMILES: CN1C(=S)[C@@H](NC(=O)c2ncn(Cc3cccc(C#N)c3)n2)COc2cccnc21 [WX032]
- IC50 ([1]; Homo sapiens, U-937, 24 h): 5.7 nM
- IC50 [2]: 0.255 µM

SMILES: Cc1cccc(Cn2cnc(C(=O)N[C@H]3COc4cccnc4N(C)C3=S)n2)c1 [WX033]
- IC50 ([1]; Homo sapiens, U-937, 24 h): 7.6 nM

SMILES: CN1C(=S)[C@@H](NC(=O)c2ncn(Cc3cc(F)cc(F)c3)n2)COc2cccnc21 [WX034]
- IC50 ([1]; Homo sapiens, U-937, 24 h): 3.7 nM

SMILES: Cc1ccccc1Cn1cnc(C(=O)N[C@H]2COc3cccnc3N(C)C2=S)n1 [WX035]
- IC50 ([1]; Homo sapiens, U-937, 24 h): 4.9 nM

SMILES: CN1C(=S)[C@@H](NC(=O)c2ncn(Cc3cccc(Cl)c3)n2)COc2cccnc21 [WX036]
- IC50 ([1]; Homo sapiens, U-937, 24 h): 6.4 nM

SMILES: CN1C(=S)[C@@H](NC(=O)c2ncn(Cc3cccc(Br)c3)n2)COc2cccnc21 [WX037]
- IC50 ([1]; Homo sapiens, U-937, 24 h): 24 nM

SMILES: CN1C(=S)[C@@H](NC(=O)c2ncn(Cc3ccc(OC(F)(F)F)cc3)n2)COc2cccnc21 [WX038]
- IC50 ([1]; Homo sapiens, U-937, 24 h): 238 nM

SMILES: Cc1ccc(Cn2cnc(C(=O)N[C@H]3COc4cccnc4N(C)C3=S)n2)cc1 [WX039]
- IC50 ([1]; Homo sapiens, U-937, 24 h): 3.4 nM
- IC50 [2]: 0.064 µM

SMILES: CN1C(=S)[C@@H](NC(=O)c2ncn(Cc3ccccc3)n2)COc2ccc(C(N)=O)cc21 [WX040]
- IC50 ([1]; Homo sapiens, U-937, 24 h): 4.8 nM

SMILES: CN1C(=S)[C@@H](NC(=O)c2ncn(Cc3ccc(C(F)(F)F)cc3)n2)COc2cccnc21 [WX041]
- IC50 ([1]; Homo sapiens, U-937, 24 h): 86.5 nM

SMILES: COc1cccc(Cn2cnc(C(=O)N[C@H]3COc4cccnc4N(C)C3=S)n2)c1 [WX042]
- IC50 ([1]; Homo sapiens, U-937, 24 h): 24.8 nM
